Laboratory results: ChEMBL document CHEMBL4602729, “O-Alkyl Hydroxamates Display Potent and Selective Antileishmanial Activity” (J Med Chem, 2020)
Activity calls are given as the source filed them. No cut-off for these calls is given here.

Assays:
[1] = tested on: Leishmania infantum; test: Antileishmanial activity against Leishmania infantum MON-1 promastigotes assessed as reduction in parasite viability at 100 uM measured after 48 hrs by MTT assay; assay type: functional, organism-based
[2] = tested on: Leishmania infantum; test: (§1) Antileishmanial activity against Leishmania infantum MON-1 promastigotes infected in BALB/c mouse assessed as reduction in liver parasite load at 25 mg/kg, ip administered daily for 14 days starting from 28 days post infection using PLGA nanoparticle incorporated compound measured post last dose by Taqman qRT-PCR analysis relative to control; assay type: functional; set-up: scale not given: the % may be the effect or the level left
[3] = tested on: Leishmania infantum; test: Antileishmanial activity against Leishmania infantum MON-1 intracellular amastigotes infected in Swiss mouse BMDM assessed as reduction in parasite load at 14.3 uM measured after 48 hrs using gold nanoparticle incorporated compound by Giemsa staining based optical microscopic analysis relative to control; assay type: functional; set-up: scale not given: the % may be the effect or the level left
[4] = Toxicity in BALB/c mouse infected with Leishmania infantum MON-1 promastigotes assessed as swelling of kidney at 10 to 25 mg/kg, ip administered daily for 14 days starting from 28 days post infection using gold nanoparticle incorporated compound; assay type: organism-based; details: in vivo
[5] = tested on: Leishmania tropica; test: Antileishmanial activity against Leishmania tropica MON-102 intracellular amastigotes; assay type: functional, organism-based; details: Leishmania tropica, MON-102
[6] = Cytotoxicity against Swiss mouse BMDM assessed as reduction in cell viability measured after 72 hrs by tryphan blue assay; assay type: cell-based; details: Swiss, BMDM
[7] = tested on: Leishmania infantum; test: as §1, with “5” for “25”, “gold” for “PLGA”, “dose in presence of meglumine antimoniate” for “dose”; assay type: functional; set-up: scale not given: the % may be the effect or the level left
[8] = Mutagenicity in Salmonella typhimurium TA98 at 10 to 75 uM measured after 5 days in absence of S9 fraction by Ames test; assay type: toxicity; details: salmonella enterica subsp. enterica serovar typhimurium, s9, 120 h
[9] = molecular target: Cytochrome P450 2D6 (Homo sapiens, UniProt P10635); test: Inhibition of CYP2D6 in human liver microsomes using dextromethorphan as substrate measured after 30 mins by LC-MS/MS analysis; assay type: ADME
[10] = Toxicity in BALB/c mouse infected with Leishmania infantum MON-1 promastigotes assessed as swelling of liver at 10 to 25 mg/kg, ip administered daily for 14 days starting from 28 days post infection using PLGA nanoparticle incorporated compound; assay type: organism-based; details: in vivo
[11] = tested on: Leishmania donovani; test: Antileishmanial activity against Leishmania donovani MON-2 intracellular amastigotes; assay type: functional, organism-based; details: Leishmania donovani, MON-2
[12] = tested on: Leishmania infantum; test: as §1, with “spleen” for “liver”, “gold” for “PLGA”; assay type: functional; set-up: scale not given: the % may be the effect or the level left
[13] = Mutagenicity in Salmonella typhimurium TA98 at 10 to 75 uM measured after 5 days in presence of S9 fraction by Ames test; assay type: toxicity, subcellular; details: salmonella enterica subsp. enterica serovar typhimurium, s9, 120 h
[14] = Solubility of the compound in water; assay type: physicochemical
[15] = Toxicity in BALB/c mouse infected with Leishmania infantum MON-1 promastigotes assessed as weight loss at 10 to 25 mg/kg, ip administered daily for 14 days starting from 28 days post infection using gold nanoparticle incorporated compound; assay type: organism-based; details: in vivo
[16] = Mutagenicity in Salmonella typhimurium TA100 at 10 to 75 uM measured after 5 days in absence of S9 fraction by Ames test; assay type: toxicity; details: salmonella enterica subsp. enterica serovar typhimurium, s9, 120 h
[17] = Toxicity in BALB/c mouse infected with Leishmania infantum MON-1 promastigotes assessed as biochemical alteration in serum at 10 to 25 mg/kg, ip administered daily for 14 days starting from 28 days post infection using PLGA nanoparticle incorporated compound; assay type: organism-based; details: in vivo
[18] = molecular target: Cytochrome P450 2C9 (Homo sapiens, UniProt P11712); test: Inhibition of CYP2C9 in human liver microsomes using diclofenac as substrate measured after 45 mins by LC-MS/MS analysis; assay type: ADME
[19] = tested on: Leishmania infantum; test: as §1, with “spleen” for “liver”, “10” for “25”, “gold” for “PLGA”; assay type: functional; set-up: scale not given: the % may be the effect or the level left
[20] = tested on: Leishmania infantum; test: as §1, with “spleen” for “liver”, “10” for “25”, “gold” for “PLGA”, “dose in presence of meglumine antimoniate” for “dose”; assay type: functional; set-up: scale not given: the % may be the effect or the level left
[21] = tested on: Leishmania major; test: Antileishmanial activity against Leishmania major MON-4 intracellular amastigotes; assay type: functional, organism-based; details: Leishmania major, MON-4
[22] = Toxicity in BALB/c mouse infected with Leishmania infantum MON-1 promastigotes assessed as swelling of spleen at 10 to 25 mg/kg, ip administered daily for 14 days starting from 28 days post infection using PLGA nanoparticle incorporated compound; assay type: organism-based; details: in vivo
[23] = Toxicity in BALB/c mouse infected with Leishmania infantum MON-1 promastigotes assessed as biochemical alteration in plasma at 10 to 25 mg/kg, ip administered daily for 14 days starting from 28 days post infection using gold nanoparticle incorporated compound; assay type: organism-based; details: in vivo
[24] = Drug metabolism in human liver microsomes assessed as N-oxidation of amide moiety by measuring compound 14 formation at 1 uM measured up to 60 mins by LC-MS/MS analysis; assay type: ADME, Microsome; details: 1 h
[25] = Toxicity in BALB/c mouse infected with Leishmania infantum MON-1 promastigotes assessed as enzymatic alteration in plasma at 10 to 25 mg/kg, ip administered daily for 14 days starting from 28 days post infection using PLGA nanoparticle incorporated compound; assay type: organism-based; details: in vivo
[26] = Toxicity in Swiss mouse at 500 mg/kg administered as single dose measured after 28 days; assay type: organism-based; details: in vivo, 672 h
[27] = tested on: Leishmania infantum; test: as §1, with “spleen” for “liver”, “5” for “25”, “gold” for “PLGA”, “dose in presence of meglumine antimoniate” for “dose”; assay type: functional; set-up: scale not given: the % may be the effect or the level left
[28] = Solubility of the compound in plasma (unknown origin); assay type: ADME, cell-free
[29] = Toxicity in BALB/c mouse infected with Leishmania infantum MON-1 promastigotes assessed as histological changes at 10 to 25 mg/kg, ip administered daily for 14 days starting from 28 days post infection using gold nanoparticle incorporated compound; assay type: organism-based; details: in vivo
[30] = tested on: Leishmania infantum; test: as §1, with “10” for “25”, “analysis” for “analysis relative to control”; assay type: functional, organism-based
[31] = Toxicity in BALB/c mouse infected with Leishmania infantum MON-1 promastigotes assessed as biochemical alteration in plasma at 10 to 25 mg/kg, ip administered daily for 14 days starting from 28 days post infection using PLGA nanoparticle incorporated compound; assay type: organism-based; details: in vivo
[32] = Toxicity in BALB/c mouse infected with Leishmania infantum MON-1 promastigotes assessed as swelling of liver at 10 to 25 mg/kg, ip administered daily for 14 days starting from 28 days post infection using gold nanoparticle incorporated compound; assay type: organism-based; details: in vivo
[33] = Drug metabolism in human liver microsomes assessed as compound 12 formation at 1 uM measured after 30 mins by LC-MS/MS analysis; assay type: ADME, Microsome; details: 0.5 h
[34] = tested on: Leishmania infantum; test: as §1, with “spleen” for “liver”, “10” for “25”, “analysis” for “analysis relative to control”; assay type: functional, organism-based
[35] = Sub-acute toxicity in Swiss mouse at 25 to 200 mg/kg administered as for 14 days and measured on day 28; assay type: organism-based; details: in vivo, 336 h
[36] = Toxicity in BALB/c mouse infected with Leishmania infantum MON-1 promastigotes assessed as weight loss at 10 to 25 mg/kg, ip administered daily for 14 days starting from 28 days post infection using PLGA nanoparticle incorporated compound; assay type: organism-based; details: in vivo

Chain of Cytochrome P450 2C9 (P11712 whole entry): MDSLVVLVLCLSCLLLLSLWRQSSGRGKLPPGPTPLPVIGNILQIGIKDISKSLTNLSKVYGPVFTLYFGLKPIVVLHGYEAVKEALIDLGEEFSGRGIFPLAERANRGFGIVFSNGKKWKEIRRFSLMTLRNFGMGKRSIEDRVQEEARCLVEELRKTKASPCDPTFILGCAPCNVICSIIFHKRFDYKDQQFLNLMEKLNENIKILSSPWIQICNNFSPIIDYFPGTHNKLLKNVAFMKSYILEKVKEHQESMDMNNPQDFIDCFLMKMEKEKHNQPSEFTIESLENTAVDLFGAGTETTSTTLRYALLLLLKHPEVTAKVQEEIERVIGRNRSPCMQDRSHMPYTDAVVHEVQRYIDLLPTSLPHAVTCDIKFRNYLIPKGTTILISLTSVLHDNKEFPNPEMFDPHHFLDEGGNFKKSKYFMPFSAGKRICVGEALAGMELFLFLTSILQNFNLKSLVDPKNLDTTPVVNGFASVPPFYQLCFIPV
Chain of Cytochrome P450 2D6 (P10635 whole entry): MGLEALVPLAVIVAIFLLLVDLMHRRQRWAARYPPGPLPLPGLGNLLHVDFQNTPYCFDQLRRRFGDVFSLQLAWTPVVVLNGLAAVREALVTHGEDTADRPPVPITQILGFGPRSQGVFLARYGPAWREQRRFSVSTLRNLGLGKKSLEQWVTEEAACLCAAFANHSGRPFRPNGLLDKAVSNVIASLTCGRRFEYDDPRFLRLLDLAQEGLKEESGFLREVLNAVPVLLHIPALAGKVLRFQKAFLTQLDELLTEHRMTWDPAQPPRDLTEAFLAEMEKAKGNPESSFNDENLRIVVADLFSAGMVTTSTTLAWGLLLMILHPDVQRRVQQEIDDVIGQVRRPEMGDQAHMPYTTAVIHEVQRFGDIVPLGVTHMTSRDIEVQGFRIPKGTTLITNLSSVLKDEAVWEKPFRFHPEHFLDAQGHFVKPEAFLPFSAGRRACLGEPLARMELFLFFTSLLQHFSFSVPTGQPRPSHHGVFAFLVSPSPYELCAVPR

Compound: O=C(CCCCCCC(=O)Nc1ccccc1)NOC(c1ccccc1)(c1ccccc1)c1ccccc1
- Activity [1]: inactive
- Activity [2]: 60%
- Activity [3]: 71%
- Activity [4]: Non-Toxic
- IC50 [5]: 710 nM
- CC50 at 72 h [6]: > 100000 nM
- Activity [7]: 98%
- Activity [8]: Non-Toxic
- IC50 [9]: > 86200 nM
- Activity [10]: Non-Toxic
- IC50 [11]: 2910 nM
- Activity [12]: 96%
- Activity [13]: Non-Toxic
- solubility [14]: < 100 µg/mL
- Activity [15]: Non-Toxic
- Activity [16]: Non-Toxic
- Activity [17]: Non-Toxic
- IC50 [18]: 2520 nM
- Activity [19]: 86%
- Activity [20]: 92%
- IC50 [21]: 1000 nM
- Activity [22]: Non-Toxic
- Activity [23]: Non-Toxic
- Drug metabolism [24]: Metabolite_Detected
- Activity [25]: Non-Toxic
- Activity [26]: Non-Toxic
- Activity [27]: 84%
- solubility [28]: Insoluble
- Activity [29]: Non-Toxic
- Activity [30]: inactive
- Activity [31]: Non-Toxic
- Activity [32]: Non-Toxic
- Drug metabolism [33]: Metabolite_Detected
- Activity [34]: inactive
- Activity [35]: Non-Toxic
- Activity [36]: Non-Toxic
